Marks after values point to notes of the source that are not given here.
Columns and labels:
Type in all cases: in vitro ADME
human recombinant CYP2D6 = target: T1, human recombinant CYP2D6 (Homo sapiens, UniProt P10635); experiment: Vandetanib oxidation by human recombinant CYP2D6 (Supersomes)
T1 construct: purchased Gentest Corp; host or cells: insect cells (baculovirus)
Experimental: (§1) The purity of all chemicals met the standards of American Chemical Society, unless noted otherwise. […] Animals were placed in cages in temperature- and humidity-controlled rooms, acclimatized for five days and maintained at 22 °C with a 12 h light/dark period. Standardized diet and water were provided ad libitum. Rats, mice and rabbits used to prepare microsomal fraction from untreated animals were sacrificed by cervical dislocation, livers snap-frozen in liquid nitrogen and stored at −80 °C until further processing (see below). For controls, livers of the animals were removed immediately after sacrifice, divided into small pieces (~1 g), snap-frozen in liquid nitrogen, and stored at −80 °C until isolation of microsomal fractions. Pooled microsomes were used for all in vitro experiments in the present study and prepared from 10 livers/group for all animal species following established protocols. Microsomal fractions were stored at −80 °C until analysis. Protein concentrations in the microsomal fractions were assessed using the bicinchoninic acid protein assay with bovine serum albumin as a standard. […] Microsomes from livers of twelve human donors were obtained from Gentest Corp. (Woburn, MA, USA) (cat. no. HG43–1, HG103, HG74, HG93, HG24, HG27, HG23, HG32, HK31, HK34, HG03, and HG42). […]

human recombinant CYP3A4 = target: T2, human recombinant CYP3A4 (Homo sapiens, UniProt P08684); experiment: Vandetanib oxidation by human recombinant CYP3A4 (Supersomes)
T2 construct: purchased Gentest Corp; host or cells: insect cells (baculovirus)
Experimental: as §1

human hepatic microsomes = experiment: Correlation of CYP- and FMO-linked activities with vandetanib metabolite formation in human hepatic microsomes; conditions: 12 human liver microsomal samples; for Correlation coefficient (r) of metabolite amount with CYP2B6 activity: (S)-mephenytoin-N-demethylase; for Correlation coefficient (r) of metabolite amount with CYP2A6 activity: coumarine-7-hydroxylase; for Correlation coefficient (r) of metabolite amount with CYP2C8 activity: paclitaxel-6α-hydroxylase; for Correlation coefficient (r) of metabolite amount with CYP3A4 activity: testosterone-6β-hydroxylase
Experimental: Vandetanib was from LC Laboratories (Woburn, MA, USA). Ketoconazole, NADPH, methimazol and other chemicals were all purchased from Sigma-Aldrich (St. Louis, MO, USA). The purity of all chemicals met the standards of American Chemical Society, unless noted otherwise. All animal experiments were conducted in accordance with the Regulations for the Care and Use of Laboratory Animals (311/1997, Ministry of Agriculture, Czech Republic), which follows the Declaration of Helsinki. Male Wistar rats (~125–150 g; AnLab, Czech Republic), male C57BL/6 mice ([…]; CXR Bioscience Ltd., Dundee, UK), and male New Zealand rabbits (2.5–3 kg; AnLab, Czech Republic) were employed as animal models. Animals were placed in cages in temperature- and humidity-controlled rooms, acclimatized for five days and maintained at 22 °C with a 12 h light/dark period. Standardized diet and water were provided ad libitum. Rats, mice and rabbits used to prepare microsomal fraction from untreated animals were sacrificed by cervical dislocation, livers snap-frozen in liquid nitrogen and stored at −80 °C until further processing (see below). For controls, livers of the animals were removed immediately after sacrifice, divided into small pieces (~1 g), snap-frozen in liquid nitrogen, and stored at −80 °C until isolation of microsomal fractions. Pooled microsomes were used for all in vitro experiments in the present study and prepared from 10 livers/group for all animal species following established protocols. Microsomal fractions were stored at −80 °C until analysis. Protein concentrations in the microsomal fractions were assessed using the bicinchoninic acid protein assay with bovine serum albumin as a standard. Male human hepatic microsomes (pooled sample) (sample LOT: 3043885) were from Gentest Corp. (Woburn, MA, USA). Microsomes from livers of twelve human donors were obtained from Gentest Corp. (Woburn, MA, USA) (cat. no. HG43–1, HG103, HG74, HG93, HG24, HG27, HG23, HG32, HK31, HK34, HG03, and HG42). Each human microsomal sample has been characterized for CYP, FMO and protein contents and specific CYP activities by Gentest Corp. We reanalyzed each microsomal preparation for specific CYP, NADPH:CYP reductase (POR) and FMO activities by assays described in the protocols of Gentest Corp. Our data were similar to those reported by Gentest Corp. in their specification sheets. The content of CYP, specific CYP and FMO activities in each human hepatic microsomes [phenacetin-O-deethylation (CYP1A2), coumarin-7-hydroxylation (CYP2A6), (S)-mephenytoin-N-demethylase (CYP2B6), paclitaxel-6α-hydroxylation (CYP2C8), diclofenac-4’-hydroxylation (CYP2C9), (S)-mephenytoin-4′-hydroxylation (CYP2C19), bufuralol-1’-hydroxylation (CYP2D6), chlorzoxazone-6-hydroxylation (CYP2E1), testosterone-6β-hydroxylation (CYP3A4), lauric acid-12-hydroxylation (CYP4A), methyl-p-tolyl sulfide oxidase (FMO)] are shown in Table 2. Human recombinant enzymes were used in the forms of Supersomes™ and obtained from Gentest Corp. In Supersomes™ microsomal fractions were isolated from insect cells that are transfected with baculovirus constructs containing cDNA of human CYP enzymes (CYP1A1/2, 1B1, 2A6, 2B6, 2C8/9/18/19/, 2D6, 2E1, 3A4). These Supersomes™ also express NADPH:CYP oxidoreductase (POR). However, because they are microsomes (particles of broken endoplasmic reticulum), other enzymes (proteins) of the endoplasmic reticulum membrane (like NADH:cytochrome b5 reductase and cytochrome b5) are also expressed at basal levels in these Supersomes™. We also utilized Supersomes™ which over-expressed cytochrome b5, in a molar ratio of CYP to cytochrome b5 of 1 to 5. In Supersomes™ where cytochrome b5 was not over-expressed (see above) pure cytochrome b5 was added to reach a molar ratio of CYP to cytochrome b5 of 1 to 5. Reconstitution of Supersomes™ with purified cytochrome b5 was performed as described previously. […]

[1] = without consideration of cytochrome b5

T1 sequence (P10635 whole entry): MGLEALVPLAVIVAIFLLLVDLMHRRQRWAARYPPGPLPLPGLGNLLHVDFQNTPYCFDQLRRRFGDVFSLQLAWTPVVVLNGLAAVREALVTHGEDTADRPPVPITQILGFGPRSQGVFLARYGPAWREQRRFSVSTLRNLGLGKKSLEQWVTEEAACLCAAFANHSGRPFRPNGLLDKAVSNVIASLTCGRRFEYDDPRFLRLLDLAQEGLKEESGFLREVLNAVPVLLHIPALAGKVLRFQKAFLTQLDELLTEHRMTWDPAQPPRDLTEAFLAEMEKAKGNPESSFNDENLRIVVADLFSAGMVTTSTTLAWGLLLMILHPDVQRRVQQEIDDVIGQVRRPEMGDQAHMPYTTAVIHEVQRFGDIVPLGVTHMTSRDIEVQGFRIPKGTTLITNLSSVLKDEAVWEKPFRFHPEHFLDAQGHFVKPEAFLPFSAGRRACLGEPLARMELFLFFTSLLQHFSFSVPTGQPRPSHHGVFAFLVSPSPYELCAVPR
T2 sequence (P08684 2-503 limits assumed): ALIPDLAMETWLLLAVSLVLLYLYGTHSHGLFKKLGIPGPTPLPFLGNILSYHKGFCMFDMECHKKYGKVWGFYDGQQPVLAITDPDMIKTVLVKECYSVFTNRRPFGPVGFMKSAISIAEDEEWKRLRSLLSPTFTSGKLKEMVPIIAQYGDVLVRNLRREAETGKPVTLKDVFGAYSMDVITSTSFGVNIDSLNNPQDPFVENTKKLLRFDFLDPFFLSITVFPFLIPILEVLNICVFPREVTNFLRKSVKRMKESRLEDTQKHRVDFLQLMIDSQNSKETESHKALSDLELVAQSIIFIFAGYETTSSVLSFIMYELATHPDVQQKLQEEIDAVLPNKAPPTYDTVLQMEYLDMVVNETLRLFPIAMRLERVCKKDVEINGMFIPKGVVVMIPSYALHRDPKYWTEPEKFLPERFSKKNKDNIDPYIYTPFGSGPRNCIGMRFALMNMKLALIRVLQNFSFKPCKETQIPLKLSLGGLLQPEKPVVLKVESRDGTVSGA

## COc1cc2c(Nc3ccc(Br)cc3F)ncnc2cc1OCC1CCNCC1 [N-desmethylvandetanib]
Human recombinant CYP2D6; CYP2D6 with vs without cytochrome b5
  effect of cytochrome b5 on N-desmethylvandetanib formation: essentially no such effect
Human recombinant CYP2D6; [1]
  contribution of CYP2D6 to N-desmethylvandetanib formation in human liver: ~ 1.7%
Human recombinant CYP3A4; with cytochrome b5
  contribution of CYP3A4 to N-desmethylvandetanib formation in human liver: ~ 99.6%
Human recombinant CYP3A4; [1]
  contribution of CYP3A4 to N-desmethylvandetanib formation in human liver: ~ 97.7%
Human hepatic microsomes
  Correlation coefficient (r) of metabolite amount with Cyt b5: −0.114
  Correlation coefficient (r) of metabolite amount with POR: 0.700
  Correlation coefficient (r) of metabolite amount with Total CYPs: 0.786 **
  Correlation coefficient (r) of metabolite amount with CYP2B6 activity: 0.826
  Correlation coefficient (r) of metabolite amount with CYP2A6 activity: 0.778
  Correlation coefficient (r) of metabolite amount with CYP2C8 activity: 0.747
  Correlation coefficient (r) of metabolite amount with CYP3A4 activity: 0.984
Human hepatic microsomes; (S)-mephenytoin-4′-hydroxylase
  Correlation coefficient (r) of metabolite amount with CYP2C19 activity: −0.168
Human hepatic microsomes; listed as M1
  Correlation coefficient (r) of metabolite amount with CYP2B6 activity: 0.826 ***
  Correlation coefficient (r) of metabolite amount with CYP2A6 activity: 0.778 **
  Correlation coefficient (r) of metabolite amount with CYP2C8 activity: 0.747 **
  Correlation coefficient (r) of metabolite amount with CYP3A4 activity: 0.984 ***
Human hepatic microsomes; bufuralol-1′-hydroxylase
  Correlation coefficient (r) of metabolite amount with CYP2D6 activity: 0.165
Human hepatic microsomes; chlorzoxazone-6-hydroxylase
  Correlation coefficient (r) of metabolite amount with CYP2E1 activity: 0.043
Human hepatic microsomes; diclofenac-4′-hydroxylase
  Correlation coefficient (r) of metabolite amount with CYP2C9 activity: −0.034
Human hepatic microsomes; methyl-p-tolyl sulfide oxidase
  Correlation coefficient (r) of metabolite amount with FMO activity: 0.270
Human hepatic microsomes; phenacetin-O-deethylase
  Correlation coefficient (r) of metabolite amount with CYP1A2 activity: 0.018

Source: article PMC6679423 (International Journal of Molecular Sciences, 2019)
